Measured values from ChEMBL document CHEMBL6092202, “4-Anilinoquinazoline Derivatives as the First Potent NOD1-RIPK2 Signaling Pathway Inhibitors at the Nanomolar Range” (J Med Chem, 2024).
Converted amounts (≈) assume the structure as drawn. The source made the active and inactive calls. The rule behind the calls is not given here.

Assays:
[1] = molecular target: Nucleotide-binding oligomerization domain-containing protein 2 (Homo sapiens, UniProt Q9HC29); assay: (§1) Inhibition of human NOD2 expressed in HEK-Blue hNOD2 cells coexpressing NF-kappaB-inducible SEAP reporter gene assessed as inhibition of NF-kappaB transcriptional activity by measuring decrease in SEAP activity preincubated for 30 mins followed by C12-iE-DAP addition and measured after 18 hrs by absorbance based spectrophotometric analysis; type: cell-based
[2] = molecular target: T1, Nucleotide-binding oligomerization domain-containing protein 1 (Homo sapiens, UniProt Q9Y239); assay: as §1, with “NOD1” for “NOD2”, “hNOD1” for “hNOD2”; type: cell-based
T1 sequence (Q9Y239 whole entry): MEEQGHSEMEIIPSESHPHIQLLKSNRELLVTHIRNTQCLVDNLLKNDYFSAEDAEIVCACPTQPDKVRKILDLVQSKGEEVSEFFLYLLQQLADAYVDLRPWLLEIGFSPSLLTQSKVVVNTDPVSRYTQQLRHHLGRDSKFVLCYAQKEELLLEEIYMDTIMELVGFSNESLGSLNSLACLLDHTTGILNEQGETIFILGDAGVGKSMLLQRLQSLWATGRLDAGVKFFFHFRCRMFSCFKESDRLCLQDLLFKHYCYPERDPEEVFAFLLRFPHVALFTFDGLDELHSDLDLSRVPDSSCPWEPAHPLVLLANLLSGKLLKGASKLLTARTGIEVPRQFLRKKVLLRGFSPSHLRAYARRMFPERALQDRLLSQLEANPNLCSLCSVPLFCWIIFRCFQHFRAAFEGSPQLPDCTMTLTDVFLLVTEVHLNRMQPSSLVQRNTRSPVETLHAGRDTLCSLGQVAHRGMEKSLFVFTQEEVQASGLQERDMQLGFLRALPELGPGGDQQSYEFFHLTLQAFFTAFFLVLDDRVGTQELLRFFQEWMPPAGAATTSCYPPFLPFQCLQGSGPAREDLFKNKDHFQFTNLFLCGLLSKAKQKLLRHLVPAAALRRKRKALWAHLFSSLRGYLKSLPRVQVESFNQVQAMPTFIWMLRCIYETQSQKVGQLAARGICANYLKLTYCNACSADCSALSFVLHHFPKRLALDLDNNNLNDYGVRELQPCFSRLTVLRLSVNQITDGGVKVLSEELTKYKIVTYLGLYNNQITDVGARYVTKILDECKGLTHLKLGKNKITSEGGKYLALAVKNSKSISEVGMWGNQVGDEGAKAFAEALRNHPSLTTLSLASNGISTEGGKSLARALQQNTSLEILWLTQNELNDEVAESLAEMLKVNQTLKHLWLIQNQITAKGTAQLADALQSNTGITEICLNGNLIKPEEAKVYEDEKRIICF

[3] = Inhibition of recombinant VEGFR (unknown origin) using PGT as substrate preincubated for 10 mins followed by substrate addition and measured after 1 hr by ADP-Glo luminescence assay; set-up: species or system Homo sapiens
[4] = molecular target: Epidermal growth factor receptor (Homo sapiens, UniProt P00533); assay: Inhibition of recombinant EGFR (unknown origin) using PGT as substrate preincubated for 10 mins followed by substrate addition and measured after 1 hr in presence of ATP by ADP-Glo luminescence assay
[5] = Cytotoxicity against HEK-Blue hNOD1 cells assessed as reduction in cell viability at 1 uM measured after 72 hrs by celltiter 96 aqueous one solution cell proliferation assay; type: toxicity, cell-based; conditions: human, hek-blue hnod1, 72 h
[6] = system: Huh-7; assay: Cytotoxicity against human Huh-7 cells assessed as reduction in cell viability at 1 uM measured after 72 hrs by celltiter 96 aqueous one solution cell proliferation assay; type: toxicity, cell-based; conditions: huh-7, 72 h
[7] = Cytotoxicity against human THP1-Blue NF-kappaB cells assessed as reduction in cell viability at 1 uM measured after 72 hrs by celltiter 96 aqueous one solution cell proliferation assay; type: toxicity, cell-based
[8] = Solubility of the compound in PBS buffer at pH 7.4; type: physicochemical
[9] = Stability in plasma (unknown origin) assessed as half life; type: ADME, cell-free
[10] = Lipophilicity, logD of compound at pH 7.4; type: physicochemical; conditions: buffer
[11] = Metabolic stability in liver microsomes (unknown origin) assessed as half life; type: ADME, Microsome
[12] = Metabolic stability in liver microsomes (unknown origin) assessed as intrinsic clearance; type: ADME, Microsome; conditions: read-out: CLH
[13] = molecular target: Receptor-interacting serine/threonine-protein kinase 2 (Homo sapiens, UniProt O43353); assay: Inhibition of human recombinant RIPK2 (1 to 317 residues) expressed in Sf21 insect cells using MBP as substrate preincubated for 10 mins followed by substrate addition and measured after 1 hr by ADP-Glo luminescence assay
[14] = system: HEK-Blue hNOD1; assay: Anti-inflammatory activity in HEK-Blue hNOD1 cells assessed as reduction in C12-iE-DAP stimulated IL-8 secretion at 0.01 to 1 uM preincubated for 1 hr followed by C12-iE-DAP addition and measured after 22 hrs by fluorescence based analysis; type: functional, cell-based; conditions: Homo sapiens, dose 0.01-1 µM, time 23.0 hrs

Sequence of Epidermal growth factor receptor (P00533 whole entry): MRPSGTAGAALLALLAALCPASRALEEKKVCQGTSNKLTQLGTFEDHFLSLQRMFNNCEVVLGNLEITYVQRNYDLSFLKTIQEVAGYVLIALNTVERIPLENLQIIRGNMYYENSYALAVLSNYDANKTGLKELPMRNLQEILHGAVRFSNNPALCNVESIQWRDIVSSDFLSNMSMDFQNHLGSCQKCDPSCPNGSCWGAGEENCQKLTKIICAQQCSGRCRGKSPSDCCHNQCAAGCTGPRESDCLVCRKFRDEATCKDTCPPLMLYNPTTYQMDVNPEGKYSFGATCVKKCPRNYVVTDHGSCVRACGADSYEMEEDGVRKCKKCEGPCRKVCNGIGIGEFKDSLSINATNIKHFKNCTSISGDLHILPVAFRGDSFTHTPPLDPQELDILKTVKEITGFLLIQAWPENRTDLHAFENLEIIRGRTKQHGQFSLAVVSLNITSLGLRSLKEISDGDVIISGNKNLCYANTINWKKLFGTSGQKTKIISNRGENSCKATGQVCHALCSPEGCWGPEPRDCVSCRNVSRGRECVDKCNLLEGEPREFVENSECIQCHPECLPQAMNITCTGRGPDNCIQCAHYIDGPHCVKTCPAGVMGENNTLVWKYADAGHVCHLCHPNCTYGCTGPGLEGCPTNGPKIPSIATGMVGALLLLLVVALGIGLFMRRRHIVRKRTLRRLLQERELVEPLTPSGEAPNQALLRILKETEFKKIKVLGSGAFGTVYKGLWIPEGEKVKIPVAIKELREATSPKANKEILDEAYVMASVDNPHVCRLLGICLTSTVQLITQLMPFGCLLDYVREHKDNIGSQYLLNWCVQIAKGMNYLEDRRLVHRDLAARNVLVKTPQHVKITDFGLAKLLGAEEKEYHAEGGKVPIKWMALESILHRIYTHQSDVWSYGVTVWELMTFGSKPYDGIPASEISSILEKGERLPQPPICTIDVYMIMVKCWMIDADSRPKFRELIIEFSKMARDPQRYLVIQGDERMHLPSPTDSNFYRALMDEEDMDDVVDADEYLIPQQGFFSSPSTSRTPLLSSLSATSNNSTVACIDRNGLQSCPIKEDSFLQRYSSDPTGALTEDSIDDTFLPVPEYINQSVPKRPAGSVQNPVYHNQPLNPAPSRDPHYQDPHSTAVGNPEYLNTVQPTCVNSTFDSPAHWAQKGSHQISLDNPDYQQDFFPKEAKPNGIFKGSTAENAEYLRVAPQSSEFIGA
Sequence of Nucleotide-binding oligomerization domain-containing protein 2 (Q9HC29 whole entry, the tested form may be a part): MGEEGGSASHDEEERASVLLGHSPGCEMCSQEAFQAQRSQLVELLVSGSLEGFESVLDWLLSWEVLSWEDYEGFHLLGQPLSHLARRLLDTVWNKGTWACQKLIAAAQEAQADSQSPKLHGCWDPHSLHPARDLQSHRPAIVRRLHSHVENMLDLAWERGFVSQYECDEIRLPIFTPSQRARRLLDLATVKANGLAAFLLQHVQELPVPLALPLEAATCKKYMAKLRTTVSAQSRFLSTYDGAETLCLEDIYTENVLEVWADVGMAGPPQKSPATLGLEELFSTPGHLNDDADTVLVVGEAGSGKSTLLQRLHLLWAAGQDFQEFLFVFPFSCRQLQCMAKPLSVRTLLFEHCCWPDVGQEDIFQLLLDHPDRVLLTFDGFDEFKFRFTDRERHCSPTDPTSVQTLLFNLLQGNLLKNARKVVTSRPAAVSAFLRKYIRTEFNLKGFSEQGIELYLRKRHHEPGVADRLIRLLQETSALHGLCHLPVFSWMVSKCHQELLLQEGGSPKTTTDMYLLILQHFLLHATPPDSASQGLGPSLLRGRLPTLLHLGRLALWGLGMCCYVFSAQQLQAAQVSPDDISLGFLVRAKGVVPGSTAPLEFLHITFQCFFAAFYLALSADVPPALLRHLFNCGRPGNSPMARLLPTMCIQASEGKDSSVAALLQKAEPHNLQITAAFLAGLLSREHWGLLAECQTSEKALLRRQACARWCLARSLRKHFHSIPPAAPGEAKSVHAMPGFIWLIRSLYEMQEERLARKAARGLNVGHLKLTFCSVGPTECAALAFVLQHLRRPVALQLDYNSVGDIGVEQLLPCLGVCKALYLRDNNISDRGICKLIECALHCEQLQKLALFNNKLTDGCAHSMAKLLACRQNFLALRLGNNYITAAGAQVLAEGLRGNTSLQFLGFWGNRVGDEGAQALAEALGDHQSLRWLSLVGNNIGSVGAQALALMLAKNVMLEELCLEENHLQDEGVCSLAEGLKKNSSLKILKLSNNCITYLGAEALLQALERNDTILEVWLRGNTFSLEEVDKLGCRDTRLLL
Sequence of Receptor-interacting serine/threonine-protein kinase 2 (O43353 whole entry, the tested form may be a part): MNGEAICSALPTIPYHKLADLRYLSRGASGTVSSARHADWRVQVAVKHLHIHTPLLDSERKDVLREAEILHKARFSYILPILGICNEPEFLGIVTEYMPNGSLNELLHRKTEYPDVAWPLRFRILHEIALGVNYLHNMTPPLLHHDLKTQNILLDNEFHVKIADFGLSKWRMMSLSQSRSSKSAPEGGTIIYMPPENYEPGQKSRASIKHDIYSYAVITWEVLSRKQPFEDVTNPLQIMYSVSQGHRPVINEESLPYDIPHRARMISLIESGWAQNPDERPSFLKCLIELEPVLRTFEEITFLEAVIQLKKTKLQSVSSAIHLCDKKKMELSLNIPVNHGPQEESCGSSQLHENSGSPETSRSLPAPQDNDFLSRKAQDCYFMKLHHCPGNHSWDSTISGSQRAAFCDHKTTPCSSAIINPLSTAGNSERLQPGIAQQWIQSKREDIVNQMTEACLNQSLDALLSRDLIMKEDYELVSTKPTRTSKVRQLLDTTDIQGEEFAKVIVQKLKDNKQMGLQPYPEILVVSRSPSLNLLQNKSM

| Compound | IC50 [1] [µM] | IC50 [2] [nM] | further results |
| --- | --- | --- | --- |
| COc1cc(Nc2ncnc3cc(OC)c(OC)cc23)c(F)cc1Br | > 10 | – | – |
| COc1cc2ncnc(Nc3cccc(Cl)c3)c2cc1OC | > 10 | > 10000 | – |
| COc1cc2ncnc(Nc3cccc(N)c3)c2cc1OC | > 10 | > 10000 | – |
| COc1cc2ncnc(Nc3ccc(F)c(O)c3)c2cc1OC | > 10 | – | IC50 [3]: 3.02 nM; IC50 [4]: 2.55 nM; Activity [5]: Non-toxic; Activity [6]: Non-toxic; Activity [7]: Non-toxic |
| CCN(CC)CCOc1cc2c(Nc3cc(OC)c(Cl)cc3Cl)ncnc2cc1OC | > 10 | – | – |
| COc1cc2ncnc(Nc3ccccc3)c2cc1OC | > 10 | > 10000 | – |
| COc1cc2ncnc(Nc3n[nH]c4ccc(F)cc34)c2cc1OC | > 10 | – | – |
| COc1cc2ncnc(Nc3ccc(Cl)c(N)c3)c2cc1OC | > 10 | – | IC50 [4]: 0.46 nM; Activity [5]: Non-toxic; Activity [6]: Non-toxic; Activity [7]: Non-toxic |
| COc1cc(Nc2ncnc3cc(OC)c(OC)cc23)c(Cl)cc1Cl | > 10 | – | IC50 [4]: 61.3 nM; Activity [5]: Non-toxic; Activity [6]: Non-toxic; Activity [7]: Non-toxic |
| CCN(CC)CCOc1cc2ncnc(Nc3cc(OC)c(Cl)cc3Cl)c2cc1OC | > 10 | 42 | IC50 [3]: > 1000 nM; IC50 [4]: > 1000 nM; solubility [8]: 31 µM (≈ 14.4 µg/mL); half-life [9]: > 360 min; logD [10]: 0.88; half-life [11]: > 40 min; microsomal CLint [12]: 29 µL/min/mg; Activity [5]: Non-toxic; Activity [6]: Non-toxic; Activity [7]: Non-toxic |
| COc1cc2ncnc(Nc3ccncc3)c2cc1OC | > 10 | – | – |
| COc1cc2ncnc(Nc3ccc(F)c(Cl)c3)c2cc1OCCCN1CCOCC1 [GEFITINIB] | 1.08 | 605 | Activity [5]: Non-toxic; Activity [6]: Non-toxic; Activity [7]: Non-toxic |
| COc1cc2ncnc(-n3nc(N)c4cc(F)ccc43)c2cc1OC | > 10 | – | – |
| COc1cc2ncnc(Nc3ccc(F)c(Cl)c3)c2cc1OC | > 10 | 1340 | – |
| COc1cc2ncnc(Nc3ccc(Br)c(O)c3)c2cc1OC | > 10 | – | – |
| COc1cc2ncnc(Nc3ccc(Br)cc3F)c2cc1OC | > 10 | 549 | – |
| COc1cc2ncnc(Nc3ccc(Cl)c(O)c3)c2cc1OC.Cl | > 10 | 33 | IC50 [3]: 1.39 nM; IC50 [4]: 0.84 nM; Activity [5]: Non-toxic; Activity [6]: Non-toxic; Activity [7]: Non-toxic |

| Compound | IC50 [1] [µM] | IC50 [2] [nM] | further results |
| --- | --- | --- | --- |
| COc1cc2ncnc(Nc3ccc(Cl)cc3Cl)c2cc1OC | > 10 | > 10000 | – |
| COc1cc2ncnc(Nc3ccc(Cl)cc3)c2cc1OC | > 10 | 283 | – |
| CCN(CC)CCOc1ccc2c(Nc3cc(OC)c(Cl)cc3Cl)ncnc2c1 | > 10 | – | – |
| COc1cc2ncnc(Nc3cccc(O)c3)c2cc1OC | > 10 | 157 | – |
| CCCS(=O)(=O)Nc1cc(-c2cc(-c3ccc(N4CCNCC4)cc3)cnc2N)cc(F)c1OC | 0.219 | – | IC50 [13]: 1.93 nM |
| COc1cc2ncnc(Nc3cc(N)ccn3)c2cc1OC | > 10 | – | – |
| COc1ccc(Cl)c(Nc2ncnc3cc(OC)c(OC)cc23)c1 | > 10 | 686 | – |
| COc1cc(Nc2ncnc3c(OC)c(OC)c(OC)cc23)c(Cl)cc1Cl | > 10 | – | – |
| COc1cc2ncnc(Nc3ccc4scnc4c3)c2cc1OC.Cl | > 10 | – | IC50 [4]: 36 nM; Activity [5]: Non-toxic; Activity [6]: Non-toxic; Activity [7]: Non-toxic |
| COc1cc2ncnc(Nc3ccc(Cl)c(Cl)c3)c2cc1OC | > 10 | – | – |
| COc1cc(Nc2ncnc3cc(OC)c(OC)cc23)ccc1Cl | > 10 | – | – |
| COc1cc2ncnc(Nc3cc(O)c(Cl)cc3Cl)c2cc1OC | > 10 | > 10000 | – |
| COc1cc2ncnc(Nc3n[nH]c(C)c3C)c2cc1OC | > 10 | > 10000 | – |
| Cc1ccc(S(=O)(=O)n2c(N)nc3ccccc32)cc1 | > 10 | – | IC50 [13]: > 1000 nM; Activity [14]: inactive |
| COCCOc1cc2ncnc(Nc3cc(OC)c(Cl)cc3Cl)c2cc1OCCOC | > 10 | – | – |
| COc1cc2ncnc(Nc3cc(Br)ccc3Br)c2cc1OC | > 10 | – | – |
| COc1cc2ncnc(Nc3ccccc3Cl)c2cc1OC | > 10 | – | – |
